Experimental data taken from PubChem BioAssay AID504570 (Southern Research Specialized Biocontainment Screening …, 2011).

System: MAGI-CCR5 HeLa cells, HIV-1 IIIB, beta-gal luminescence, 48 h
Assay: anti-HIV-1 IIIB activity in MAGI-CCR5 reporter cells – cell-based, MAGI-CCR5 HeLa, beta-gal luminescence, 2% serum, set 2, dose response (AID 504570);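 active means compounds that blocked at least half of HIV-1 replication in the reporter cells at some tested dose; inactive means the rest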

IC50, active:
Cc1c2c(=O)n(-c3nc4ccccc4s3)nc-2cc(O)n1Cc1ccccc1Cl 3.07 µM
Cc1c2c(=O)n(-c3nc4ccccc4s3)nc-2cc(O)n1CCc1cccs1 26 µM
COc1ccccc1Cn1c(O)cc2nn(-c3nc4ccccc4s3)c(=O)c-2c1C 26.5 µM
Cc1c2c(=O)n(-c3nc4ccccc4s3)nc-2cc(O)n1Cc1ccccc1 14.5 µM
Cc1c2c(=O)n(-c3nc4ccccc4s3)nc-2cc(O)n1Cc1cccs1 11.9 µM
Cc1c2c(=O)n(-c3nc4ccccc4s3)nc-2cc(O)n1C1CC1 7.53 µM
Cc1c2c(=O)n(-c3nc4ccccc4s3)nc-2cc(O)n1Cc1ccncc1 14.7 µM
Cc1c2c(=O)n(-c3nc4ccccc4s3)nc-2cc(O)n1CCC(C)C 5.34 µM
Cc1c2c(=O)n(-c3nc4ccccc4s3)nc-2cc(O)n1CCc1ccc(O)cc1 25.6 µM
Cc1c2c(=O)n(-c3nc4ccccc4s3)nc-2cc(O)n1Cc1ccc(F)cc1 3.75 µM
COc1ccc(Cn2c(O)cc3nn(-c4nc5ccccc5s4)c(=O)c-3c2C)cc1 33.6 µM
Cc1c2c(=O)n(-c3nc4ccccc4s3)nc-2cc(O)n1Cc1cccnc1 7.09 µM
COc1ccc(CCn2c(O)cc3nn(-c4nc5ccccc5s4)c(=O)c-3c2C)cc1 11.8 µM
